From ChEMBL document CHEMBL1138816, “Design and synthesis of novel N-acetylgalactosamine-terminated glycolipids for targeting of lipoproteins to the hepatic asialoglycoprotein receptor” (J Med Chem, 2004)
pKi: −log10 of the molar value.

Assays:
Mus musculus [1] = species: Mus musculus; test: Lipoprotein lowering effect in mice at 3-6 hrs was determined; assay type: functional
Mus musculus [2] = test: Percentage liver uptake of [125I]LDL upon intravenous injection to C57BL/6J mice; assay type: functional
[3] = Uptake by the liver in mice at 60 min after injection; assay type: ADME, tissue-based; details: mouse, in vivo, 1 h
[4] = Binding affinity for mouse asialoglycoprotein receptor using [125I]-glycolipid3
[5] = Half-life in C57BL/6J mice upon intravenous administration of 3.33 mg/kg; assay type: ADME, organism-based; set-up: dose 3.33 mg/kg, route intravenous; details: mouse, in vivo
Mus musculus [6] = test: Percentage liver uptake of [3H]HDL upon intravenous injection to C57BL/6J mice

In the case of CCCCCCCC/C=C\CCCCCCCC(=O)N[C@H]1CC[C@@]2(C)C(CC[C@H]3[C@@H]4CC[C@H](C(C)CCC(=O)N[C@@H](Cc5ccc(O)cc5)C(=O)NCC(=O)NC(COCCC(=O)NCCOCCOCCOC5OC(CO)C(O)C(O)C5NC(C)=O)(COCCC(=O)NCCOCCOCCOC5OC(CO)C(O)C(O)C5NC(C)=O)COCCC(=O)NCCOCCOCCOC5OC(CO)C(O)C(O)C5NC(C)=O)[C@@]4(C)CC[C@@H]32)C1 (stereo partly specified), the Peak effect (Mus musculus [1]) was 20%, the Activity (Mus musculus [2]) was 70% and the Uptake [3] was 44%. It also gave a pKi [4] of 8.70, a half-life [5] of about 30 min and an Activity (Mus musculus [6]) of 78%.
